Results taken from patent publication US20240116985A1, “STAPLED PEPTIDES AND METHODS THEREOF” (priority 2020, published 2024).
Values after ≈ are worked out from the molar mass of the structure shown. Read-outs that look alike come from different tables or passages of the source.

What was measured:
CHI Log D procedure = format: physicochemical; conditions: for chromatographic logD: pH 7.4, CHI Log D
Solubility in PBS = format: physicochemical
Outline: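 PBS sample ultracentrifuged; supernatant run on HPLC vs. 50 μM peptide in DMSO standard. Solubility = (PBS peak area / DMSO peak area) × 50 uM.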

[1] = system: TCF/LEF luciferase Reporter in DLD1 cells; experiment: TCF reporter assay (DLD1 TCF/LEF luciferase reporter, Bright-Glo); format: cell-based
Outline: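 Readouts: Bright-Glo luciferase for reporter signal and CellTiter-Glo for cell viability, with absolute IC50 derived. The reporter clone came from lentiviral TCF/LEF-luciferase transduction of DLD1 cells, seeded 5000 cells/well in RPMI with 4% FBS and exposed overnight to serially diluted compounds.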

[2] = molecular target: T1, beta-catenin/TCF4 engagement (Homo sapiens, UniProt P35222); experiment: Nano-BRET target engagement assay (B-cat-Halo & TCF4-Luc in HEK293 cells); format: cell-based
T1 construct: expressed in transfected cells; host or cells: HEK293
T1 sequence (P35222 1-781): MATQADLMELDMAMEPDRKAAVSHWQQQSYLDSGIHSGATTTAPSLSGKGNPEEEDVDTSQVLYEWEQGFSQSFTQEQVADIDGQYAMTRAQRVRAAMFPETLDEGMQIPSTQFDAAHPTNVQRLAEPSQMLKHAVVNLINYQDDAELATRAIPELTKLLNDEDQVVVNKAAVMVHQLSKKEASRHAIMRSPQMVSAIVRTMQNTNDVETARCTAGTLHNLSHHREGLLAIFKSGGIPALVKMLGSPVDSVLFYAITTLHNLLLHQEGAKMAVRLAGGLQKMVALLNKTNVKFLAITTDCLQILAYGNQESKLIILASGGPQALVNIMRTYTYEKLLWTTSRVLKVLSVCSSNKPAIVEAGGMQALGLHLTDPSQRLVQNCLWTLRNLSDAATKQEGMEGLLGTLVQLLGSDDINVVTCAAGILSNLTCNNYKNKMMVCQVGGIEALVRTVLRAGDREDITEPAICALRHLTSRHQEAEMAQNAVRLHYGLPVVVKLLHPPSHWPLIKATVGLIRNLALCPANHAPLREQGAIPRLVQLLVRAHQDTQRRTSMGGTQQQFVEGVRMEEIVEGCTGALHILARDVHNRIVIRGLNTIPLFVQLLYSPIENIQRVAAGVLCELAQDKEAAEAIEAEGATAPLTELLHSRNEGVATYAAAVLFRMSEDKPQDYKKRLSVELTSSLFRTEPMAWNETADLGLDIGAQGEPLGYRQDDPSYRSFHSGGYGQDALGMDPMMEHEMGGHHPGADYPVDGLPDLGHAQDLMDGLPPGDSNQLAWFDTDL

[3] = molecular target: T2, full-length beta-Catenin (Uniprot ID P35222) (Homo sapiens, UniProt P35222); experiment: Fluorescence polarization IC50 (beta-catenin / 5FAM-TCF4 10-53 competition); format: binding
T2 construct: 10 nM full-length beta-Catenin (Uniprot ID P35222)
T2 sequence (P35222 1-781): T1 sequence (P35222 1-781)

[4] = absolute IC50, read-out: DLD1 reporter assay Abs IC50
[5] = absolute IC50, read-out: NanoBRET Abs IC50

| Compound | chromatographic logD (CHI Log D procedure) | Solubility (Solubility in PBS; Solubility (uM)) | IC50 [1, 4] | IC50 [2, 5] | IC50 ([3]; read-out: beta-Catenin FP IC50) | Solubility (Solubility in PBS) | IC50 ([1]; read-out: DLD1 4% Abs IC50, DLD1 4%) | IC50 ([2]; read-out: NanoBRET Abs IC50) | IC50 ([2]; read-out: NanoBRET IC50) | CHI Log D (CHI Log D procedure; pH 7.4) | IC50 ([3]; fluorescence polarization, beta-catenin, read-out: FP EC50) |
| --- | --- | --- | --- | --- | --- | --- | --- | --- | --- | --- | --- |
| CC(=O)N1CCC[C@]12CC=CCCCC1(CCCC=CCCCOC(=O)N3CC[C@@](C(=O)N[C@@H](Cc4ccccc4Cl)C(=O)N[C@@H](Cc4csc5ccccc45)C(=O)N[C@@H](CCC(N)=O)C(N)=O)(C3)NC(=O)[C@H](CO)NC(=O)[C@H](Cc3ccccc3)NC(=O)[C@H](C)NC(=O)[C@H](C)NC(=O)[C@H](CC(=O)O)NC(=O)[C@H](CC(=O)O)NC1=O)NC(=O)[C@H](CC(C)(C)C)NC(=O)[C@H](CC(=O)O)NC2=O (stereo partly drawn) [I-1017, Ac-PL3-Asp-Npg-B5-Asp-Asp-Ala-Ala-Phe-Ser-PyrS2-2C1F-BztA-Gln-NH2] | 2.11 | 48 µM (≈ 92.1 µg/mL) | > 20 µM | 8.9 µM | 0.005 µM |  |  |  |  |  |  |
| CC(=O)N1CCC[C@]12CC=CCCCC1(CCCC=CCCCOC(=O)N3CC[C@@](C(=O)N[C@@H](Cc4ccccc4Cl)C(=O)N[C@@H](Cc4csc5ccccc45)C(=O)N[C@@H](CO)C(N)=O)(C3)NC(=O)[C@H]([C@@H](C)O)NC(=O)[C@H](Cc3ccccc3)NC(=O)[C@H](C)NC(=O)[C@H](C)NC(=O)[C@H](CC(N)=O)NC(=O)[C@H](CC(=O)O)NC1=O)NC(=O)[C@H](CC(C)(C)C)NC(=O)[C@H](CC(=O)O)NC2=O (stereo partly drawn) [I-1016, Ac-PL3-Asp-Npg-B5-Asp-Asn-Ala-Ala-Phe-Thr-PyrS2-2ClF-BztA-Ser-NH2] | 2.38 |  | 21.4 µM | 21.4 µM | 0.008 µM | 10 µM (≈ 18.9 µg/mL) |  |  |  |  |  |
| CC(=O)N1CCC[C@]12CC=CCCCC1(CCCC=CCCCOC(=O)N3CC[C@@](C(=O)N[C@@H](Cc4ccsc4)C(=O)N[C@@H](Cc4csc5ccccc45)C(=O)N[C@@H](CO)C(N)=O)(C3)NC(=O)[C@H](CC(N)=O)NC(=O)[C@H](Cc3ccccc3)NC(=O)[C@H](C)NC(=O)[C@H](C)NC(=O)[C@H](CC(=O)O)NC(=O)[C@H](CC(=O)O)NC1=O)NC(=O)[C@H](CC(C)(C)C)NC(=O)[C@H](CC(=O)O)NC2=O (stereo partly drawn) [I-815, Ac-PL3-Asp-Npg-B5-Asp-Asp-Ala-Ala-Phe-Asn-PyrS2-3Thi-BztA-Ser-NH2] | 2.1 | 46 µM (≈ 86.3 µg/mL) |  |  | 0.005 µM |  | 10.3 µM | 15.4 µM | 11.8 µM |  |  |
| CC(=O)N1CCC[C@]12CC=CCCCC1(CCCC=CCCCCCC[C@@](C)(C(=O)N[C@@H](Cc3ccccc3Cl)C(=O)N[C@@H](Cc3csc4ccccc34)C(=O)N[C@@H](CCC(N)=O)C(N)=O)NC(=O)[C@H]([C@@H](C)O)NC(=O)[C@H](Cc3ccccc3)NC(=O)[C@H](C)NC(=O)[C@H](C)NC(=O)[C@H](CC(=O)O)NC(=O)[C@H](CC(=O)O)NC1=O)NC(=O)[C@H](CC(C)(C)C)NC(=O)[C@H](CC(=O)O)NC2=O (stereo partly drawn) [I-1087, Ac-PL3-Asp-Npg-B5-Asp-Asp-Ala-Ala-Phe-Thr-S8-2C1F-BztA-Gln-NH2] |  |  | > 20 µM | 9.3 µM | 0.009 µM | 44 µM (≈ 83.2 µg/mL) |  | 9.3 µM |  | 2.766 | 0.009 µM |
| CC(=O)N1CCC[C@]12CC=CCCCC1(CCCC=CCCCCCC[C@@](C)(C(=O)N[C@@H](Cc3ccccc3Cl)C(=O)N[C@@H](Cc3csc4ccccc34)C(=O)N[C@@H](C(N)=O)[C@H](C)O)NC(=O)[C@H](CC(C)C)NC(=O)[C@H](Cc3ccccc3)NC(=O)[C@H](C)NC(=O)[C@H](C)NC(=O)[C@H](CC(=O)O)NC(=O)[C@H](CC(=O)O)NC1=O)NC(=O)[C@H](CC(C)(C)C)NC(=O)[C@H](CC(=O)O)NC2=O (stereo partly drawn) [I-1097, Ac-PL3-Asp-Npg-B5-Asp-Asp-Ala-Ala-Phe-Leu-S8-2C1F-BztA-dThr-NH2] | 3.61 | 20 µM (≈ 37.5 µg/mL) | > 20 µM | > 20 µM | 0.04 µM |  |  |  |  |  |  |
